Experimental data from US20240343666A1, “PERINAPHTHENONE COMPOUND AND USE THEREOF” (INSTITUTE OF MEDICINAL BIOTECHNOLOGY, CHINESE ACADEMY OF …, priority 2021, published 2024).

Biological target: TRIM25 (Homo sapiens, UniProt Q14258)
Type: cell-based
Set-up: endogenous in cells

Chain of TRIM25 (Q14258 whole entry, species assumed): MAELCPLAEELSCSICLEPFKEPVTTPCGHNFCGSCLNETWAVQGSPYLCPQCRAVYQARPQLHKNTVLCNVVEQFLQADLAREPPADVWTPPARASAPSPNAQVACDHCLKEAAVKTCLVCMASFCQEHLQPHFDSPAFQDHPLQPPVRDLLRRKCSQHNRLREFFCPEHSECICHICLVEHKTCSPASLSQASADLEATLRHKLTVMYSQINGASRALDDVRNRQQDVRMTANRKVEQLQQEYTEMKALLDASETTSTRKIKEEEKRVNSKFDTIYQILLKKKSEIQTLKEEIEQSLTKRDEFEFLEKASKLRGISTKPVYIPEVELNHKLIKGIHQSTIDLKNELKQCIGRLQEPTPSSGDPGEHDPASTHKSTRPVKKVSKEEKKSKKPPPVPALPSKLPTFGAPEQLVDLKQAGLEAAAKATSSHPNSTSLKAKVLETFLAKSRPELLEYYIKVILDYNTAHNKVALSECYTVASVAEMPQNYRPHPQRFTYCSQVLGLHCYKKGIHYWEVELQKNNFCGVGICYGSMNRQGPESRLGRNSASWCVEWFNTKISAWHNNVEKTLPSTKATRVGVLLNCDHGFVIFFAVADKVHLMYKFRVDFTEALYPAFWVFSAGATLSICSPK

C/C(=C\CC/C(C)=C/C[C@]1(O)C(=O)c2c(O)cc(C)c3c(O)c(C)c(O)c(c23)C1=O)CC/C=C(\CO)CC[C@@H](O)C(C)(C)O [Compound C1]
Anti-influenza activity after TRIM25 knockdown: significantly affected | Anti-influenza activity on overexpression of TRIM25 in TRIM25 knockout cell line: restore the anti-influenza activity of compound C1 to a normal cell level
